Data reported in patent US5332739A, “Pyrimidinedione derivatives and antiarrhythmic agents containing same” (Mitsui Toatsu Chemicals, Incorporated, priority 1990, dated 1994).
Counter-ions that a name gives are not always drawn.

Columns and labels:
[1] = Toxicity Test 1 (oral, mortality 24 hours after administration); conditions: mouse, in vivo, 300 mg/kg (P.O), 2 to 4 mice per group, read-out: Mortality Rate (%)
Experimental: Each of the compounds prepared in the above-mentioned examples shown in Table B was administered into a mouse (ddy strain, male). In each case, the administration was effected by oral administration in a dose of 300 mg/kg.
A mortality rate (number of specimens: one group=2 to 4 mice) of the mice 24 hours after the administration was calculated, and the results are set forth in Table B.

[2] = system: Purkinje fiber of the right ventricular free wall; test: Influence on Myocardial Action Potential Duration Time (APD75); assay type: cell-based, hybrid adult dog; conditions: Canis lupus familiaris, 20 min, 20 minutes' incubation, 1 Hz, 37° C.; for percent prolongation of action potential duration (APD75) at 0.3 µg/mL: Dose 0.3 (μg, ml); for percent prolongation of action potential duration (APD75) at 1 µg/mL: Dose 1.0 (μg, ml); for percent prolongation of action potential duration (APD75) at 3 µg/mL: Dose 3.0 (μg, ml); for percent prolongation of action potential duration (APD75) at 10 µg/mL: Dose 10.0 (μg, ml)
Experimental: To a hybrid adult dog, 30 mg/kg of pentobarbital was administered through a vein, and after being anesthetized, the heart was removed. Afterward, the right ventricular free wall of the heart was cut and taken out in a Tyrode solution.
The taken right ventricular free wall was fixed in an incubator at 37° C., and a nutritional solution (20 ml of the Tyrode solution) was refluxed.
In this isolated condition, myocardial action potential duration times (APD75) were measured before and after the administration of the respective compounds prepared in the above examples in Table A and d-sotalol as a control medicine, and APD75 (%) was calculated from the measured results in accordance with the formula: […]
A: APD75 before administration
B: APD75 after administration
Here, APD75 was measured as follows: A field stimulation of 1 Hz was given to the right ventricular free wall, and any variation of an action potential was depicted on an oscilloscope via a glass microelectrode (10 to 20 M.OMEGA.) thrust into a Purkinje fiber of the free wall and via an amplifier. Afterward, a waveform on the oscilloscope was analyzed by the use of a computer, and the time of from a point of the action potential generation to a point of 75% repolarization was measured. This measured time was regarded as the myocardial action potential duration time (APD75).
The compounds and d-sotalol shown in Table A were separately added to the refluxing nutritional solution (20 ml), and after 20 minutes' incubation, APD75 after the administration was calculated from the variation of the myocardial action potential duration time.
Incidentally, this test was carried out in accordance with a Sato et al's method [H. Sato, K. Hashimoto, Arzneimeittel Forschung, 34 (1), 3a, 376-380 (1984)].

[3] = system: ventricular muscle (right ventricle); test: Influence on Ventricular Muscle Refractory Period (ERP); assay type: in vivo, mongrel adult dog; conditions: Canis lupus familiaris, iv, anesthetized dog, read-out: ERP (%; extensibility of refractory period); for change in vivo at 0.1 mg/kg: Dose 0.1 mg/kg i.v.; for change in vivo at 0.3 mg/kg: Dose 0.3 mg/kg i.v.; for change in vivo at 1 mg/kg: Dose 1.0 mg/kg i.v.; for change in vivo at 3 mg/kg: Dose 3.0 mg/kg i.v.
Experimental: Refractory periods were measured in the following manner before and after each of the compounds and d-sotalol shown an Table A was separately administered to a vein or a duodenum, and ERP (%; extensibility of refractory period) was calculated from the measured values in accordance with the following formula: […]
W: Refractory period after administration
Y: Refractory period before administration
To a mongrel adult dog, 30 mg/kg of pentobarbital was administered intravenously, and after being anesthetized, a pair of silver-silver chloride electrodes separated by 3 mm was sewn on an opened right ventricule, and electrical stimulation was given at an interval of 400 msec at a duration time of 4 msec under a current twice as much as the threshold. Afterward, a small amount of alcohol was injected into a sinus artery in order to extinguish a pacemaker activity, and the ventricular refractory period (ERP) was measured under ventricule pacing.
That is, 1 train comprised 10 stimulations, and an interval between two of the trains was usually 400 msec. At the time of the refractory period measurement, however, the above interval was shortened every 10 smec, and the interval between the trains at the time when reaction to the first stimulation of the train disappeared was regarded as the refractory period.
In this case, the electrical stimulation was fed in accordance with a program by a heart stimulation device (Diamedical Co., Ltd.; DHM-226-3).

SMILES	mortality at 24 h [1]	percent prolongation of action potential duration (APD75) at 0.3 µg/mL [2]	percent prolongation of action potential duration (APD75) at 1 µg/mL [2]	percent prolongation of action potential duration (APD75) at 3 µg/mL [2]	percent prolongation of action potential duration (APD75) at 10 µg/mL [2]	change in vivo at 0.1 mg/kg [3]	change in vivo at 0.3 mg/kg [3]	change in vivo at 1 mg/kg [3]	change in vivo at 3 mg/kg [3]
CC(=O)c1ccccc1CCN1CCN(c2cc(=O)n(C)c(=O)n2C)CC1 [Compound 85, 1,3-dimethyl-6-[4-(2-[2-acetylphenyl]ethyl)piperazin-1-yl]-2,4(1H,3H)-pyrimidinedione.oxalate]	0%								
Cn1c(N2CCN(CCCOc3ccc(S(C)(=O)=O)cc3)CC2)cc(=O)n(C)c1=O [Compound 7]	0%								
Cn1c(N2CCN(CCCOc3ccc(C(F)(F)F)cc3)CC2)cc(=O)n(C)c1=O [Compound 2]	50%								
CC(C)NC[C@@H](O)c1ccc(NS(C)(=O)=O)cc1 [d-sotalol, reference compound]		0%	3%	7.4%	15.8%	1.7%	6.7%	8.7%	15.5%
Cn1c(N2CCN(CCCOc3ccccc3C(=O)CCc3ccccc3)CC2)cc(=O)n(C)c1=O [Compound 31]			13%	16%		0%	0%	6.3%	12.9%
Cn1c(N2CCN(CCCc3ccccc3)CC2)cc(=O)n(C)c1=O [Compound 89, 1,3-dimethyl-6-[4-(3-phenylpropyl)piperazin-1-yl]-2,4(1H,3H)-pyrimidinedione.hydrochloride]			15%	26%	31%	0%	5.7%	9.7%	14%
Cn1c(N2CCN(CCOc3ccccc3)CC2)cc(=O)n(C)c1=O [Compound 65, 1,3-dimethyl-6-[4-(2-phenoxyethyl)piperazin-1-yl]-2,4(1H,3H)-pyrimidinedione.hydrochloride]				14%	17%	0%	0%	0%	0%
Cn1c(N2CCN(CCCOc3ccc(C(=O)c4ccccc4)cc3)CC2)cc(=O)n(C)c1=O [Compound 9]			6%	21%	30%	5.6%	5.6%	11.1%	16.7%
CC(C)C(=O)c1ccccc1OCCCN1CCN(c2cc(=O)n(C)c(=O)n2C)CC1 [Compound 25]			13%	26%		0%	0%	0%	7.6%
CC(=O)c1ccccc1OCCCN1CCN(c2cc(=O)n(C)c(=O)n2C)CC1 [Compound 17, 1,3-dimethyl-6-[4-(3-[2-acetylphenoxy)propyl)piperazin-1-yl]-2,4(1H,3H)-pyrimidinedione]			28%	43%	59%	3.5%	8.3%	13.5%	17.3%
Cn1c(N2CCN(CCCOc3ccc(Cl)cc3C(=O)c3ccccc3)CC2)cc(=O)n(C)c1=O [Compound 51]		11%	19%	24%		0%	6.3%	6.3%	12.5%
Cn1c(N2CCN(CCCOc3ccc(F)cc3)CC2)cc(=O)n(C)c1=O [Compound 1, 1,3-dimethyl-6-[4-(3-[4-fluorophenoxy]propyl)piperazin-1-yl]-2,4(1H,3H)-pyrimidinedione.hydrochloride]			17%	22%	30%	6%	12%	15.8%	24.3%
Cn1c(N2CCN(CCCOc3ccccc3C#N)CC2)cc(=O)n(C)c1=O [Compound 16]			6%	14%	23%	0%	0%	6.7%	10%
Cn1c(N2CCN(CCc3ccc(Cl)cc3)CC2)cc(=O)n(C)c1=O [Compound 91, 1,3-dimethyl-6-[4-(2-[4-chlorophenyl]-ethyl)piperazin-1-yl]-2,4(1H,3H)-pyrimidinedione.hydrochloride]			13%	25%		3.5%	6.5%	14.5%	
Cn1c(N2CCN(CCCOc3ccccc3N=[N+]=[N-])CC2)cc(=O)n(C)c1=O [Compound 36]				17%		0%	7.1%	7.1%	14.3%
CC(=O)Nc1ccccc1OCCCN1CCN(c2cc(=O)n(C)c(=O)n2C)CC1 [Compound 18]				11%	22%		6.3%	12.5%	
Cn1c(N2CCN(CCc3ccccc3)CC2)cc(=O)n(C)c1=O [Compound 88, 1,3-dimethyl-6-[4-(2-phenylethyl)-piperazin-1-yl]-2,4(1H,3H)-pyrimidinedione.hydrochloride]				26%	49%	2%	6%	11.7%	
Cn1c(N2CCN(CCCOc3ccc(Cl)cc3Cl)CC2)cc(=O)n(C)c1=O [Compound 43]				13%	18%	0%	0%	7.7%	19.3%
Cn1c(N2CCN(CCCOc3ccc(Cl)cc3S(C)(=O)=O)CC2)cc(=O)n(C)c1=O [Compound 50]			6%	15%	26%	0%	5.6%	5.6%	11.1%
